Values after ≈ are worked out from the molar mass of the structure shown. Active and inactive are the calls of the source. The calls are words filed in the database; no cut-off is given here.
What was measured:
Epoxide hydrolase B = target: T1, Epoxide hydrolase B (Mycobacterium tuberculosis, UniProt P95276); assay: Inhibition of Mycobacterium tuberculosis recombinant EphB expressed in Escherichia coli BL21 using CMNPC as substrate after 30 mins by fluorescent assay relative to control
T1 sequence (P95276 whole entry): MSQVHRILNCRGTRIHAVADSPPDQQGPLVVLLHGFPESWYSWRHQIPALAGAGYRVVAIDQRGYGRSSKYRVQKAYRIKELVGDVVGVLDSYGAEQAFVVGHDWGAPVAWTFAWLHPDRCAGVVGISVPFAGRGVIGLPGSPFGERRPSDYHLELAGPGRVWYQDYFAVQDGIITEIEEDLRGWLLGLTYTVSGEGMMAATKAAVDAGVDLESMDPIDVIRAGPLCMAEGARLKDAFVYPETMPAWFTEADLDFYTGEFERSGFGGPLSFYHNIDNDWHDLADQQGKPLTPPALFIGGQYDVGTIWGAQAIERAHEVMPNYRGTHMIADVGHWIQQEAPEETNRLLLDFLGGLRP

[1] = target: T2, Bifunctional epoxide hydrolase 2 (Homo sapiens, UniProt P34913); assay: Inhibition of human recombinant soluble epoxide hydrolase using CMNPC as substrate after 10 mins by fluorescent assay
T2 sequence (P34913 whole entry): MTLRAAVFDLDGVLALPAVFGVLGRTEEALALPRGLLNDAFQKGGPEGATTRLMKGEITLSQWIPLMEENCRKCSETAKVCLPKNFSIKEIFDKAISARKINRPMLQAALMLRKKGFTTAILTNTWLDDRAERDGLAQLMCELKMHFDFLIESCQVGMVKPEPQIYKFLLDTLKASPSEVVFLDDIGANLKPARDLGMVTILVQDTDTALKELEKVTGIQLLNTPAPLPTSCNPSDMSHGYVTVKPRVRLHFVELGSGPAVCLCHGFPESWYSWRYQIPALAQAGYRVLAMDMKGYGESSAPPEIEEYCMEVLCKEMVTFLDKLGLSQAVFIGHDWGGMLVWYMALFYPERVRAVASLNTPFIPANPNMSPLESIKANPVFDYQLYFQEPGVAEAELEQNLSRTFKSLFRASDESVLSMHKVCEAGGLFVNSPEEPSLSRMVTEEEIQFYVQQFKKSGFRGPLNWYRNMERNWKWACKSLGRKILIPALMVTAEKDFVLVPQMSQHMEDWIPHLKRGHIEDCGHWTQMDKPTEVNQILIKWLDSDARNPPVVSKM

Enterococcus faecium = assay: Antibacterial activity against Enterococcus faecium; format: functional
Escherichia coli [2] = assay: Antibacterial activity against Escherichia coli […] TolC; format: functional
[3] = target: T3, Hydrolase, alpha/beta hydrolase fold family (Mycobacterium tuberculosis, UniProt O69638); assay: Inhibition of Mycobacterium tuberculosis recombinant EphE expressed in Escherichia coli BL21 using CMNPC as substrate after 30 mins by fluorescent assay relative to control
T3 sequence (O69638 whole entry): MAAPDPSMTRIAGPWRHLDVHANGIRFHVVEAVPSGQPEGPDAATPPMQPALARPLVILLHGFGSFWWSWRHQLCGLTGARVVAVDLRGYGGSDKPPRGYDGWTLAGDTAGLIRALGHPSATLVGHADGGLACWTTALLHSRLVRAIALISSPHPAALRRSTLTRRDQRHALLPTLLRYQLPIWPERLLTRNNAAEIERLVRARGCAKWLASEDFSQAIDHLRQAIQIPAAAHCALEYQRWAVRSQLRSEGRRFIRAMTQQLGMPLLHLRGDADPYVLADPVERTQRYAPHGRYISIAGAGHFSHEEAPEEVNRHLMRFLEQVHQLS

Bacillus anthracis = assay: microbe, parasite or virus in culture
Klebsiella pneumoniae = assay: Antibacterial activity against Klebsiella pneumoniae; format: functional
Enterococcus faecalis = assay: Antibacterial activity against Enterococcus faecalis; format: functional
Staphylococcus aureus = assay: Antibacterial activity against Staphylococcus aureus; format: functional
Escherichia coli [4] = assay: Antibacterial activity against Escherichia coli K12; format: functional; details: K-12
Pseudomonas aeruginosa = assay: Antibacterial activity against Pseudomonas aeruginosa; format: functional
[5] = target: T4, Epoxide hydrolase B (Mycobacterium tuberculosis) (UniProt P95276); assay: Inhibition of Mycobacterium tuberculosis recombinant EphB expressed in Escherichia coli BL21 using CMNPC as substrate at 10 nM after 30 mins by fluorescent assay relative to control
T4 sequence (whole entry): T1 sequence (P95276 whole entry)

[6] = tested on: Mycobacterium tuberculosis; assay: microbe, parasite or virus in culture; details: H37Rv, 168 h
[7] = tested on: Mycolicibacterium smegmatis; assay: microbe, parasite or virus in culture; details: str. MC2 155, 168 h
[8] = target: T5, Hydrolase, alpha/beta hydrolase fold family (Mycobacterium tuberculosis) (UniProt O69638); assay: Inhibition of Mycobacterium tuberculosis recombinant EphE expressed in Escherichia coli BL21 using CMNPC as substrate at 10 nM after 30 mins by fluorescent assay relative to control
T5 sequence (whole entry): T3 sequence (O69638 whole entry)

Vero = assay: Cytotoxicity against african green monkey Vero cells after 72 hrs by MTT assay; format: cell-based; details: Chlorocebus sabaeus

| SMILES | IC50 (Epoxide hydrolase B) | IC50 [1] | MIC (Enterococcus faecium) | MIC (Escherichia coli [2]) | IC50 [3] | MIC (Bacillus anthracis) | MIC (Klebsiella pneumoniae) | MIC (Enterococcus faecalis) | MIC (Staphylococcus aureus) | MIC (Escherichia coli [4]) | MIC (Pseudomonas aeruginosa) | inhibition [5] | MIC [6] | MIC [7] | inhibition [8] | IC50 (Vero) |
| --- | --- | --- | --- | --- | --- | --- | --- | --- | --- | --- | --- | --- | --- | --- | --- | --- |
| CC(=O)C1CCC(NC(=O)Nc2ccc(OC(F)(F)F)cc2)CC1 (configuration not stated) | 31600 nM | 12 nM | – | – | – | – | – | – | – | – | – | – | – | – | – | – |
| CC(C)CCOc1ccc(NC(=S)Nc2ccc(OCCC(C)C)cc2)cc1 [TIOCARLIDE] | – | – | > 200 µg/mL | > 200 µg/mL | 22 nM | > 200 µg/mL | > 200 µg/mL | > 200 µg/mL | > 200 µg/mL | > 200 µg/mL | > 200 µg/mL | inactive | 2.5 µg/mL (≈ 6.24 µM) | > 200 µg/mL | – | – |
| CCCCCCCNC(=O)NC1C2CC3CC(C2)CC1C3 (configuration not stated) | – | 0.5 nM | > 200 µg/mL | > 200 µg/mL | – | > 200 µg/mL | > 200 µg/mL | > 200 µg/mL | > 200 µg/mL | > 200 µg/mL | > 200 µg/mL | 37.1% | 0.2 µg/mL (≈ 0.684 µM) | 1.6 µg/mL (≈ 5.47 µM) | 99.9% | 20 µg/mL (≈ 68.4 µM) |
| COCCCNC(=O)NC12CC3CC(CC(C3)C1)C2 | – | 386 nM | > 200 µg/mL | > 200 µg/mL | – | > 200 µg/mL | > 200 µg/mL | > 200 µg/mL | > 200 µg/mL | > 200 µg/mL | > 200 µg/mL | 23.7% | 100 µg/mL (≈ 375 µM) | 200 µg/mL (≈ 751 µM) | 35.9% | 20.4 µg/mL (≈ 76.6 µM) |
| CCCCCCCNC(=O)Nc1ccc(C)c(Cl)c1 | – | 1.6 nM | > 200 µg/mL | > 200 µg/mL | – | > 200 µg/mL | > 200 µg/mL | > 200 µg/mL | > 200 µg/mL | > 200 µg/mL | > 200 µg/mL | 91% | 3.1 µg/mL (≈ 11 µM) | > 200 µg/mL | 99.3% | 186 µg/mL (≈ 659 µM) |
| CCCOCCNC(=O)NC12CC3CC(CC(C3)C1)C2 | – | 243 nM | > 200 µg/mL | 200 µg/mL (≈ 713 µM) | – | > 200 µg/mL | > 200 µg/mL | > 200 µg/mL | > 200 µg/mL | > 200 µg/mL | > 200 µg/mL | 16.6% | 25 µg/mL (≈ 89.2 µM) | 200 µg/mL (≈ 713 µM) | 35% | 265 µg/mL (≈ 944 µM) |
| Cc1ccc(NC(=O)NC2CCCCCCC2)cc1Cl | – | 0.4 nM | > 200 µg/mL | > 200 µg/mL | – | > 200 µg/mL | > 200 µg/mL | > 200 µg/mL | > 200 µg/mL | > 200 µg/mL | > 200 µg/mL | 83.6% | 0.01 µg/mL (≈ 0.0339 µM) | 0.8 µg/mL (≈ 2.71 µM) | 98.2% | > 400 µg/mL |
| CCCCCNC(=O)NC1C2CC3CC(C2)CC1C3 (configuration not stated) | – | 6.4 nM | > 200 µg/mL | > 200 µg/mL | – | > 200 µg/mL | > 200 µg/mL | > 200 µg/mL | > 200 µg/mL | > 200 µg/mL | > 200 µg/mL | 58.6% | 0.39 µg/mL (≈ 1.47 µM) | 12.5 µg/mL (≈ 47.3 µM) | 90.5% | 11.6 µg/mL (≈ 43.9 µM) |
| CCCCCCNC(=O)NC1C2CC3CC(C2)CC1C3 (configuration not stated) | – | 1 nM | > 200 µg/mL | > 200 µg/mL | – | > 200 µg/mL | > 200 µg/mL | > 200 µg/mL | > 200 µg/mL | > 200 µg/mL | > 200 µg/mL | 32% | 0.01 µg/mL (≈ 0.0359 µM) | 6.25 µg/mL (≈ 22.4 µM) | 100% | 175 µg/mL (≈ 628 µM) |
| Cc1ccc(NC(=O)NCC23CC4CC(CC(C4)C2)C3)cc1Cl | – | 0.4 nM | > 200 µg/mL | > 200 µg/mL | – | > 200 µg/mL | > 200 µg/mL | > 200 µg/mL | > 200 µg/mL | > 200 µg/mL | > 200 µg/mL | 33.9% | 0.02 µg/mL (≈ 0.0601 µM) | 0.8 µg/mL (≈ 2.4 µM) | 94.1% | 4.34 µg/mL (≈ 13 µM) |
| O=C(NCc1ccccc1)NC1C2CC3CC(C2)CC1C3 (configuration not stated) | – | 14.8 nM | > 200 µg/mL | > 200 µg/mL | – | > 200 µg/mL | > 200 µg/mL | > 200 µg/mL | > 200 µg/mL | > 200 µg/mL | > 200 µg/mL | inactive | 3.1 µg/mL (≈ 10.9 µM) | 100 µg/mL (≈ 352 µM) | 34.1% | 4.2 µg/mL (≈ 14.8 µM) |
| O=C(NCCc1ccccc1)NC1C2CC3CC(C2)CC1C3 (configuration not stated) | – | 4.5 nM | > 200 µg/mL | > 200 µg/mL | – | > 200 µg/mL | > 200 µg/mL | > 200 µg/mL | > 200 µg/mL | > 200 µg/mL | > 200 µg/mL | 34.1% | 0.01 µg/mL (≈ 0.0335 µM) | 25 µg/mL (≈ 83.8 µM) | 87.9% | 30.2 µg/mL (≈ 101 µM) |
| CC(=O)c1cccc(NC(=O)NC2C3CC4CC(C3)CC2C4)c1 (configuration not stated) | – | 0.5 nM | > 200 µg/mL | > 200 µg/mL | – | > 200 µg/mL | > 200 µg/mL | > 200 µg/mL | > 200 µg/mL | > 200 µg/mL | > 200 µg/mL | 80.6% | 0.1 µg/mL (≈ 0.32 µM) | 6.25 µg/mL (≈ 20 µM) | 31.4% | 9.7 µg/mL (≈ 31 µM) |
| COC(=O)c1ccc(NC(=O)NC23CC4CC(CC(C4)C2)C3)cc1O | – | 1.2 nM | > 200 µg/mL | > 200 µg/mL | – | > 200 µg/mL | > 200 µg/mL | > 200 µg/mL | > 200 µg/mL | > 200 µg/mL | > 200 µg/mL | 26.9% | 0.4 µg/mL (≈ 1.16 µM) | 50 µg/mL (≈ 145 µM) | 79.5% | 30.3 µg/mL (≈ 88 µM) |
